Test results published in US12378188B2, “Waterborne crosslinker composition” (priority 2020, dated 2025).

Key:
[1] = test system: Rtkn; assay: ToxTracker genotoxicity assay, Rtkn GFP reporter; conditions: fold induction vs vehicle control
[2] = Storage stability of the crosslinker dispersion (gelling / coagulation); conditions: dispersion pH 11 with TEA, Maxemul 7101
[3] = described in U.S. Pat. No. 5,133,997; cited from earlier work

CCCCOCC(CN1CC1)OC(=O)NCCCCCCn1c(=O)n(CCCCCCNC(=O)OC(COCCCC)CN2CC2)c(=O)n(CCCCCCNC(=O)OC(COCCCC)CN2CC2)c1=O (stereo not drawn) [Composition 1]
Rtkn GFP reporter induction level ([1]; With S9 rat liver extract, at 10% cytotoxicity, 3 h exposure and 24 h recovery): 1.0 | Rtkn GFP reporter induction level ([1]; With S9 rat liver extract, at 25% cytotoxicity, 3 h exposure and 24 h recovery): 1.1 | Rtkn GFP reporter induction level ([1]; With S9 rat liver extract, at 50% cytotoxicity, 3 h exposure and 24 h recovery): 1.1 | Rtkn GFP reporter induction level ([1]; Without S9 rat liver extract, at 10% cytotoxicity, 24 h exposure): 1.0 | Rtkn GFP reporter induction level ([1]; Without S9 rat liver extract, at 25% cytotoxicity, 24 h exposure): 1.0 | Rtkn GFP reporter induction level ([1]; Without S9 rat liver extract, at 50% cytotoxicity, 24 h exposure): 0.9

O=C(NCCCCCCn1c(=O)n(CCCCCCNC(=O)OCCN2CC2)c(=O)n(CCCCCCNC(=O)OCCN2CC2)c1=O)OCCN1CC1 [Example C4]
Storage stability of dispersion [2]: a storage stable dispersion was not obtained | Time until severe coagulation was observed after preparation of the dispersion [2]: ≤ 4 h

O=C(CCN1CC1)OCC(CO)(COC(=O)CCN1CC1)COC(=O)CCN1CC1 [XAMA-7]
Stability in water [3]: unstable in water
